# Data reported in publication PMC9862597, “Anti-Colorectal Cancer Effects of a Novel Camptothecin Derivative PCC0208037 In Vitro and In Vivo” (Pharmaceuticals, 2022).
# How the values were obtained:
# HCT116 cells = test: MTT cell viability assay, HCT116; type: cell-based; conditions: Homo sapiens, HCT-116, 72 h
# Description: Cell viability was assessed using the MTT assay, as previously reported. Briefly, colorectal cancer cells (LS180, HCT116, CT-26, and HT-29 cells) were plated onto 96-well plates at 3000 cells per well and incubated overnight. […] Control cells were treated with DMSO at a final concentration of 0.1%. Cells were cultured with the compounds or medium for 72 h. The cells were then treated with MTT. The medium was then decanted, and DMSO was added and shaken until the color reaction was complete. The […] were read using a Molecular Devices SpectraMax M5 (San Jose, CA, USA) at OD570 nm. The half maximal inhibitory concentration (IC50) was calculated.
# LS180 xenograft tumor = test: Subcutaneous LS180 xenograft model; type: in vivo, nude mice; conditions: for tumor inhibition rate (tumor weight): 15 d
# Description: To establish xenograft tumor models, RPMI 1640 and Matrigel were mixed at a 1:1 ratio. Colorectal cancer cells (LS180: 5 × 10^6 cells) were added to 0.1 mL of the mixture, and male nude mice were subcutaneously injected with colorectal cancer cells on the right side. […] Tumor volume and animal weight were measured every 3 days and continued until the end of the experiments. All mice were euthanized by cervical dislocation at the end of the experiment, and the xenograft tumors were removed and weighed.
# Figure 8 Anti-tumor effect of PCC0208037 in the LS180 xenograft tumor model. (A) Representative tumors removed after the last treatment in each treatment group. (B) Body weight gain curves of mice bearing an LS180 xenograft tumor. (C) Tumor weights in the different groups of mice after 15 d of treatment.
# [1] = PCC0208037- and CPT-11-induced toxicity in mice; conditions: 50 mg/kg/day i.p. for four days
# LS180 and HCT116 cells [2] = test: Cell growth curve assay; type: cell-based; conditions: 0.001, 0.003 µmol/L, counts over 6 days
# Description: Cell proliferation was examined by a cell growth curve assay and a clone formation assay. Colorectal cancer cells (LS180 and HCT116 cells) were plated onto six-well plates at a density of 8000 cells per well. […] The number of cells was measured 24 h after the drug treatments. Growth curves were generated from cell counts over 6 consecutive days. For the clone formation assay, colorectal cancer cells (LS180 and HCT116 cells) were plated onto six-well plates at a density of 800 cells per well. […] Cells were then incubated with designated concentrations of PCC0208037. Fourteen days later, cells were stained with a crystal violet solution, and clones were counted.
# Figure 2 Effect of PCC0208037 on cell growth. (A) Cell growth curves of LS180 cells under different treatments. (B) Cell growth curves of HCT116 cells under different treatments. The data were expressed as the mean ± SD (n = 3). * p < 0.05 as compared to the control.
# [3] = 0.25 h and 1 h after single i.v. injection
# Description: Then, 0.25 h and 1 h after the injection, the colorectal and tumor tissue were removed, rinsed with saline, and blotted dry.
# LS180 cells = test: Flow cytometry cell cycle and apoptosis assay; type: cell-based; conditions: LS180, 24, 48 and 72 h
# Description: Cell cycle analysis and an Apoptosis Assessment were performed using flow cytometry. LS180 cells were seeded in 6-well plates at a density of 1 × 10^5 cells per well for 12 h, and then different concentrations of PCC0208037 were added for 24, 48, and 72 h, respectively. Cells were stained with PI- or PI/FITC-labeled annexin, and the effects of PCC0208037 on cell cycle progression and apoptosis were analyzed by flow cytometry.
# Figure 5 PCC0208037 induced G2/M phase arrest and apoptosis in LS180 cells. (A) Cells were treated with multiple concentrations of PCC0208037 for 24, 48, and 72 h and then analyzed by flow cytometry with PI staining. (B). Cells were treated with multiple concentrations of PCC0208037 for 24, 48, and 72 h and then analyzed by flow cytometry with annexin VeFITC staining. The data were expressed as the mean ± SD (n = 3). * p < 0.05 as compared to the control.
# LS180 and HCT116 cells [4] = test: Western blot of DNA damage and apoptosis related proteins; type: cell-based; conditions: 0.01 and 0.03 μM, compared to control
# Description: Effects of PCC0208037 on the protein expression levels were examined by Western blotting, as described previously. Briefly, 2 × 10^6 LS180 and HCT116 cells were seeded in 10-cm dishes to adhere overnight. […] At the desired time points, cells were washed twice with a cold PBS. Then, cells were lysed in the RIPA buffer for 30 min on ice. The RIPA buffer contains protease inhibitors and phosphatase inhibitors. After sonication, the samples were centrifuged at 12,000 rpm, and then the supernatants were harvested and assayed for the protein concentration. Equal amounts of protein (30 μg) were separated with a polyacrylamide gel and transferred to a PVDF membrane. The membranes were blocked for 2 h (in 5% skim milk) and then incubated with primary antibodies overnight at 4 °C: ATM p-ATM, ATR, p-ATR, Chk1, p-Chk1, Chk2, p-Chk2, P53, p-P53, Bcl2, gamma H2AX, Bax, Puma, β-actin, and GAPDH. Then, the membranes were incubated with secondary antibodies for 2 h at room temperature. All these antibodies were diluted to a 1:1000 concentration in use. The immunoblots were visualized by a BeyoECL Plus enhanced chemiluminescence system.
# Figure 6 Effects of PCC0208037 on molecules related to DNA damage in CRC cells. […]
smiles,measurement,setting,value
CCc1c2c(nc3ccc(O)cc13)-c1cc3c(c(=O)n1C2)COC(=O)[C@@]3(CC)OC(=O)Nc1nc(=O)n([C@@H]2O[C@H](C)[C@@H](O)[C@H]2O)cc1F [PCC0208037],IC50,HCT116 cells,2.9 ± 0.61 µM
same,tumor inhibition rate (tumor weight),LS180 xenograft tumor; 5 mg/kg i.v. once every 3 days,29.9%
same,tumor inhibition rate (tumor weight),LS180 xenograft tumor; 10 mg/kg i.v. once every 3 days,37.2%
same,tumor inhibition rate (tumor weight),LS180 xenograft tumor; 20 mg/kg i.v. once every 3 days,50.8%
same,effect on body weight of tumor-bearing mice,"LS180 xenograft tumor; PCC0208037 5, 10, 20 mg/kg, CPT-11 10 mg/kg, i.v. once every 3 days",without impacting the normal feeding and body weight gain
same,colorectal tissue histomorphological examination (H&E),[1]; colon after 7 days,A mild reduction of goblet cells and a mild infiltration of lymphocytes
same,mortality,[1]; seven-day observation,No animal died
same,recovery of body weight and food intake decrease,[1]; seven-day observation,began to recover on the 6th day onwards
same,cell growth ability (cell growth curve),LS180 and HCT116 cells [2],decreased the cell growth ability in a dose-dependent manner
same,concentration in the colorectal tissue compared with CPT-11,[3],significantly lower than CPT-11
same,percentage of apoptotic cells,LS180 cells; FITC annexin V staining,significantly increased the percentage of apoptotic cells
same,ratio of cells in the G2/M phase,LS180 cells; PI staining,significantly increased the ratio of the cells in the G2/M phase
same,protein levels of molecules associated with DNA damage,LS180 and HCT116 cells [4]; 8 h,"significantly up-regulated the protein levels of γ-H2AX, p-ATM, p-Chk1, p-Chk2, p-P53, and P53"
same,protein levels of molecules associated with apoptosis,LS180 and HCT116 cells [4]; 24 h,significantly up-regulated the protein levels of BAX and PUMA and down-regulated the protein level of Bcl-2
